Source: patent publication US5840485A, “Topologically segregated, encoded solid phase libraries” (priority 1994, dated 1998)
“Also recorded” adds a separate entry of the source. Like-named read-outs stand apart in the source and are kept apart here.

Legend:
[1] = tested on: anti-β-endorphin monoclonal antibody (clone 3-E 7); experiment: Screening of encoded peptide library XXXX-Lys(XXXX)-Lys(ZZ) on beads; format: binding; conditions: Table 3, two cycles of Edman degradation
Protocol: After thorough washing, streptavidin-alkaline phosphatase was added. One hour later, the beads were washed, substrate was added, and color development proceeded as described above. The color beads were then physically isolated and subjected to sequencing. In these two experiments, only the darkest beads were sequenced.

streptavidin [2] = molecular target: T1, streptavidin (Streptomyces avidinii, UniProt P22629); conditions: for activity with streptavidin after chymotrypsin: in words
T1 sequence (P22629 25-183): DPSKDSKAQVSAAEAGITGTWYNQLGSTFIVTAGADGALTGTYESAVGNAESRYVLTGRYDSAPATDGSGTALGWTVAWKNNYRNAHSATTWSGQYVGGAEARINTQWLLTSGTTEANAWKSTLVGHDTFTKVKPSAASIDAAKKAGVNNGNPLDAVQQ
Protocol: (§1) Beads were carefully washed and transferred to 0.1M ammonium carbonate buffer of pH 7.7. Chymotrypsin (1 mg) was added and suspension was shaken at 37° C. for 20 hours. The same treatment was repeated twice for 4 hours.
(§2) Beads were carefully washed and prepared for staining with anti-β-endorphin as described previously.
(§3) Treated beads were tested for binding to anti-β-endorphin and streptavidin.

[3] = tested on: anti-β-endorphin antibody; experiment: Antibody detection of model test compounds on non-sequentially coded beads; format: binding; conditions: test compound on bead surface, coding molecule inside
Source text: The test compound sequences prepared were Tyr-Gly-Ala-Phe SEQ ID NO:12 and Phe-Gly-Ala-Phe SEQ ID NO:13, coded by doublets of amino acids (see Scheme XIC), and Tyr-Gly-Gly-Phe-Leu SEQ ID NO:14 and Phe(Cl)-Gly-Gly-Phe-Leu SEQ ID NO:15 (encoded by coding by Scheme XIB). […] Moreover, the fidelity and coding could be confirmed by directly sequencing the test peptides.
Therefore, the synthesis was not performed in successive steps of coupling test AA subunit followed by a pair of coding subunits, but rather using the more convenient scheme described below. […] The mixture of amino acids coding for phenylalanine in position four of the test compound structure (Boc-Sar and Boc-Asp(OBzl) in a molar ratio of 1:1 (reflecting their relatively equivalent coupling reactivity which had previously been determined experimentally) was coupled using DIC and HOBT (3 eq each). The reaction was monitored by bromophenol blue method. The resin was washed by DMF (5×) and the Dde group was deprotected by 2% hydrazine hydrate in DMF (10 min). The resin was washed by DMF (5×), 2% HOBT in DMF, and Fmoc-Lys(Dde) was coupled, and Fmoc group removed. The procedure of coupling mixtures of Boc amino acids and Fmoc-Lys(Dde) was repeated two times (coupling the coding subunit mixtures of Ile and Val (2:1) and Lys(ClZ) and Glu(OBzl) (1.5:1)) and after deprotection of the Dde group, Boc-Lys(Fmoc) was coupled to the resin in both syringes. […]

streptavidin [4] = molecular target: T1, streptavidin; experiment: Screening of encoded peptide library XXXX-Lys(XXXX)-Lys(ZZ) on beads; format: binding; conditions: Table 3, two cycles of Edman degradation
Protocol: The peptide library was screened according to published procedures (Lam and Lebl, 1992, Immunomethods 1: 11-15). The peptide beads were first mixed with double-distilled water to remove the DMF. After extensive washing with PBS (137 mM NaCl, 2.7 mM KCl, 4.3 mM Na2 HPO4, 1.4 mM KH2 PO4, pH 7.2), the beads were coated with 0.05% gelatin (w/v) to block any nonspecific binding. The beads were then incubated with a 1:100,000 dilution of streptavidin-alkaline phosphatase at 2 mg/ml (Pierce; Rockford, Ill.) in 2× PBS/Tween/gelatin (2× PBS, 0.1% Tween-20 (v/v), and 0.05% gelatin (w/v)). The beads were then thoroughly washed with TBS (137 mM NaCl, 2.7 mM KCl, 25 mM Tris base, pH 7.4) and the standard substrate 5-bromo-4-chloro-3-indolyl phosphate was added. The beads, together with the substrate, were then transferred to petri dishes for color development. After 30 minutes to 1 hour, the colored beads were collected, with the aid of a micropipette, washed with 6M guanidine hydrochloride, pH 1.0, and subjected to sequencing as described.
This library was used in the screening against two model targets, anti-β-endorphin monoclonal antibody, and streptavidin. […]

[5] = tested on: anti-β-endorphin antibody; experiment: Binding to peptide beads (staining) with or without chymotrypsin treatment / surface synthesis
Protocol: as §1, §2, §3

chymotrypsin = experiment: Chymotrypsin cleavage of bead-bound substrates; format: biochemical; conditions: for decrease in the total amount of peptide on bead after chymotrypsin / cleavage by chymotrypsin (substrate quality): bead-bound peptide
Protocol: as §1
Resin was washed and transferred to the 0.1M ammonium carbonate buffer pH 7.7. Chymotrypsin treatment was performed in the same way as described above.
A simple substrate for chymotrypsin, Boc-Phe, was synthesized on all available amino groups of the solid carrier.

anti-β-endorphin = experiment: Semi-quantitative staining of peptide-beads blocked with polyglutamic acid, biotinyl-anti-β-endorphin followed by streptavidin-AP; format: binding
Protocol: TentaGel amide AM resin (0.3 meq/gram substitution) was hydrated in H2 O for several hours, and washed with 0.1M 2-[N-morpholino]ethanesulfonic acid (MES) buffer, pH 5.7. A varying amount (0 to 10 mg) of polyglutamic acid (Mr 30,000, Sigma Chemical) was added to each of the 0.2 ml of settled bead. Sixty mg of 1-ethyl-3-(3-dimethylamino-propyl) carbodiimide-HCl (EDC) was then added to each tube. The reaction mixtures were rocked gently overnight. The beads were then washed into double distilled (dd) H2 O and 0.24 mmol ethanolamine plus 60 mg EDC in MES buffer were added to each sample. After 4 hours of gentle shaking, the resin was washed extensively with dd H2 O. The resin was then lyophilized to dryness. The treated resin was swollen in dimethylformamide (DMF). Using Fmoc chemistry, the peptide, […] SEQ ID NO:11 was synthesized on each of the treated resin samples using standard techniques. The N-terminal Fmoc group and the side chain protected groups were removed with piperidine and trifluoracetic acid as described (Lam et al., 1991, Nature 354: 82-84).

[6] = two-peptide beads, surface deprotected by chymotrypsin

Compound: YGGF: test peptide sequence deduced from positive beads of the encoded library
- Target of positive bead, deduced sequence [1]: anti-β-endorphin

Compound: YGPF: test peptide sequence deduced from positive beads of the encoded library
- Target of positive bead, deduced sequence [1]: anti-β-endorphin

Compound: LHPQF
- reaction with streptavidin of beads with YGGFL on surface and LHPQF inside (streptavidin [2]; [6]): positive reaction; also recorded: still available for interaction with streptavidin

Compound: Phe-Gly-Ala-Phe (FGAF)
- detection by anti-β-endorphin antibody [3]: negative control

Compound: Tyr-Gly-Ala-Phe (YGAF)
- detection by anti-β-endorphin antibody [3]: positive
- detection by anti-β-endorphin antibody ([3]; listed as Tyr-Gly-Ala-Phe): can be detected

Compound: HPQF: test peptide sequence deduced from positive beads of the encoded library
- Target of positive bead, deduced sequence (streptavidin [4]): streptavidin positive

Compound: YGGFL
- binding activity to anti-β-endorphin antibody after chymotrypsin ([5]; after chymotrypsin, in words): completely lost binding activity
- staining / reaction with anti-β-endorphin of beads with YGGFL on surface and second peptide inside [5, 6]: indistinguishable from staining of the beads containing only YGGFL sequence; also recorded: positive reaction; also recorded: available on the surface of the bead for the interaction with the relevant acceptor
- decrease in the total amount of peptide on bead after chymotrypsin (chymotrypsin): minimal

Compound: LHPQFYG
- cleavage by chymotrypsin (substrate quality) (chymotrypsin): proceeded efficiently
- decrease in the total amount of peptide on bead after chymotrypsin (chymotrypsin): minimal
- activity with streptavidin after chymotrypsin (streptavidin [2]): completely abrogated
- activity with streptavidin after chymotrypsin (streptavidin [2]; listed as LHPQF-YG): completely lost activity

Compound: YGGFLGGG [peptide synthesized on polyglutamic acid treated resin]
- staining of polyglutamic acid-blocked resin (anti-β-endorphin; blocked resin, in words): stained only weakly
- Labeling with biotinyl-anti-β-endorphin followed by streptavidin-AP (anti-β-endorphin; polyglutamic acid 10 mg per 0.2 ml resin): trace

Compound: LHFQF: LHFQF SEQ ID NO:10 was a poor substrate for chymotrypsin
- cleavage by chymotrypsin (substrate quality) (chymotrypsin): poor substrate

Compound: CC(C)(C)OC(=O)N[C@@H](Cc1ccccc1)C(=O)O [Boc-Phe]
- release of Boc-Phe by chymotrypsin (chymotrypsin; Boc-Phe on all available amino groups of carrier, various conditions): ~1.1%
